From US11111251B2, “Positive allosteric modulators of the muscarinic acetylcholine receptor M1” (Vanderbilt University, priority 2016, dated 2021)

Molecular target: T1, human mAChR M1 (Homo sapiens, UniProt P11229)
T1 sequence (P11229 1-460): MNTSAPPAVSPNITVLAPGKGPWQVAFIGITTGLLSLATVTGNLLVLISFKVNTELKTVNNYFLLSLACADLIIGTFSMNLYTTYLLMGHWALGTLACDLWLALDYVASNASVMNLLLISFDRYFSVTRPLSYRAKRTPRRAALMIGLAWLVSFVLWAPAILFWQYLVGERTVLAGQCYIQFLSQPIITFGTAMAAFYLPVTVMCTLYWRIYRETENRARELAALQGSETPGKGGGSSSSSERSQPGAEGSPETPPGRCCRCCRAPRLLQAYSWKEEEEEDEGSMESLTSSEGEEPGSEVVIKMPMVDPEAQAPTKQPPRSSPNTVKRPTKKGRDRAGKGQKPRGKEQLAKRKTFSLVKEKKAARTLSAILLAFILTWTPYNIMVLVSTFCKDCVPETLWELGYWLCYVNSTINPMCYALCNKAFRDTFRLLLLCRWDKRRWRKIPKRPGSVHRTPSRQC
Assay: mAChR M1 cell-based functional assay: calcium mobilization, positive allosteric modulator mode (increase in EC20 acetylcholine response)
Conditions: Table 2, human M1; for EC50: read-out: Human M1 EC50; for Emax: read-out: Human M1 Emax (%)
Outline: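 PAM potency reflects the concentration-dependent increase in calcium response to an EC20 acetylcholine challenge, given 144 s into a 300 s read after compound addition at 4 s (EC80 follows at 230 s). Cells were hM1-expressing CHO-K1, loaded 50 min with Fluo-4 AM. Curves used 11 points at 1:3 dilutions and four-parameter logistic fitting.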

| EC50 [nM] | Emax [%] | Compound |
| --- | --- | --- |
| 5.76 | 47 | Cn1ccc(-c2ccc(Cc3cc(C(=O)N[C@H]4CCOC[C@@H]4O)nc4ccsc34)cc2)n1 [Compound 255, N-[(3R,4S)-3-hydroxytetrahydropyran-4-yl]-7-[[4-(1-methylpyrazol-3-yl)phenyl]methyl]thieno[3,2-b]pyridine-5-carboxamide] |
| > 10000 | 26.4 | Cc1ccc(Cc2cc(C(=O)NC3(C#N)CC3)nc3ccsc23)cn1 [Compound 257, N-(1-cyanocyclopropyl)-7-[(6-methyl-3-pyridyl)methyl]thieno[3,2-b]pyridine-5-carboxamide] |
| > 10000 | 56.2 | Cc1ccc(Cc2cc(C(=O)NC3CC(F)C3)nc3ccsc23)cn1 (centres unmarked) [Compound 259, N-(3-fluorocyclobutyl)-7-[(6-methyl-3-pyridyl)methyl]thieno[3,2-b]pyridine-5-carboxamide] |
| 5370 | 58.4 | Cc1ccc(Cc2cc(C(=O)NC3CC(F)(F)C3)nc3ccsc23)cn1 [Compound 260, N-(3,3-difluorocyclobutyl)-7-[(6-methyl-3-pyridyl)methyl]thieno[3,2-b]pyridine-5-carboxamide] |
| > 10000 | 24.4 | Cc1ccc(Cc2cc(C(=O)N[C@@H]3CCOC3)nc3ccsc23)cn1 [Compound 262] |
| > 10000 | 59.3 | Cc1ccc(Cc2cc(C(=O)N[C@H]3CCCNC3)nc3ccsc23)cn1 [Compound 266, 7-[(6-methyl-3-pyridyl)methyl]-N-[(3S)-3-piperidyl]thieno[3,2-b]pyridine-5-carboxamide] |
| 39.7 | 78.5 | O=C(N[C@H]1CCOC[C@@H]1O)c1cc(Cc2c(F)cc(-c3cscn3)cc2F)c2sccc2n1 [Compound 270, 7-[(2,6-difluoro-4-thiazol-4-yl-phenyl)methyl]-N-[(3R,4S)-3-hydroxytetrahydropyran-4-yl]thieno[3,2-b]pyridine-5-carboxamide] |
| 312 | 45.5 | O=C(NC1CCOCC1)c1cc(Cc2c(F)cc(-c3cscn3)cc2F)c2sccc2n1 [Compound 271, 7-[(2,6-difluoro-4-thiazol-4-yl-phenyl)methyl]-N-tetrahydropyran-4-yl-thieno[3,2-b]pyridine-5-carboxamide] |
| 434 | 35.9 | O=C(NC1CC2(COC2)C1)c1cc(Cc2c(F)cc(-c3cscn3)cc2F)c2sccc2n1 [Compound 272, 7-[(2,6-difluoro-4-thiazol-4-yl-phenyl)methyl]-N-(2-oxaspiro[3.3]heptan-6-yl)thieno[3,2-b]pyridine-5-carboxamide] |
| 272 | 73.6 | O=C(N[C@H]1CCCC[C@@H]1O)c1cc(Cc2c(F)cc(-c3cscn3)cc2F)c2sccc2n1 [Compound 273, 7-[(2,6-difluoro-4-thiazol-4-yl-phenyl)methyl]-N-[(1S,2S)-2-hydroxycyclohexyl]thieno[3,2-b]pyridine-5-carboxamide] |
| 43 | 69.9 | O=C(NC1CC2(COC2)C1)c1cc(Cc2ccc(-n3cccn3)cc2)c2sccc2n1 [Compound 275, N-(2-oxaspiro[3.3]heptan-6-yl)-7-[(4-pyrazol-1-ylphenyl)methyl]thieno[3,2-b]pyridine-5-carboxamide] |
| 5500 | 64.5 | CC1(NC(=O)c2cc(Cc3ccc(-n4cccn4)cc3)c3sccc3n2)COC1 [Compound 276, N-(3-methyloxetan-3-yl)-7-[(4-pyrazol-1-ylphenyl)methyl]thieno[3,2-b]pyridine-5-carboxamide] |
| 256 | 55 | O=C(NC1CC(F)(F)C1)c1cc(Cc2ccc(-n3cccn3)cc2)c2sccc2n1 [Compound 281, N-(3,3-difluorocyclobutyl)-7-[(4-pyrazol-1-ylphenyl)methyl]thieno[3,2-b]pyridine-5-carboxamide] |
| 601 | 40 | N#CC1(NC(=O)c2cc(Cc3ccc(-n4cccn4)cc3)c3sccc3n2)CC1 [Compound 282, N-(1-cyanocyclopropyl)-7-[(4-pyrazol-1-ylphenyl)methyl]thieno[3,2-b]pyridine-5-carboxamide] |
| > 10000 | 43.1 | CC(C)(C#N)NC(=O)c1cc(Cc2ccc(-n3cccn3)cc2)c2sccc2n1 [Compound 283, N-(1-cyano-1-methyl-ethyl)-7-[(4-pyrazol-1-ylphenyl)methyl]thieno[3,2-b]pyridine-5-carboxamide] |

The remaining lines, values behind:

| Compound | EC50 [nM] | Emax [%] |
| --- | --- | --- |
| Cn1ccc(-c2ccc(Cc3cc(C(=O)NC4CCOCC4)nc4ccsc34)cc2)n1 [Compound 254, 7-[[4-(1-methylpyrazol-3-yl)phenyl]methyl]-N-tetrahydropyran-4-yl-thieno[3,2-b]pyridine-5-carboxamide] | 142 | 71.6 |
| Cn1ccc(-c2ccc(Cc3cc(C(=O)N[C@H]4CCCC[C@@H]4O)nc4ccsc34)cc2)n1 [Compound 256, N-[(1S,2S)-2-hydroxycyclohexyl]-7-[[4-(1-methylpyrazol-3-yl)phenyl]methyl]thieno[3,2-b]pyridine-5-carboxamide] | 57.6 | 50 |
| Cc1ccc(Cc2cc(C(=O)NC3COC3)nc3ccsc23)cn1 [Compound 258, 7-[(6-methyl-3-pyridyl)methyl]-N-(oxetan-3-yl)thieno[3,2-b]pyridine-5-carboxamide] | > 10000 | 27.5 |
| Cc1ccc(Cc2cc(C(=O)NC3CC4(COC4)C3)nc3ccsc23)cn1 [Compound 261, 7-[(6-methyl-3-pyridyl)methyl]-N-(2-oxaspiro[3.3]heptan-6-yl)thieno[3,2-b]pyridine-5-carboxamide] | > 10000 | 52.8 |
| Cc1ccc(Cc2cc(C(=O)N[C@H]3CCOC3)nc3ccsc23)cn1 [Compound 263, 7-[(6-methyl-3-pyridyl)methyl]-N-[(35)-tetrahydrofuran-3-yl]thieno[3,2-b]pyridine-5-carboxamide] | > 10000 | 29.3 |
| O=C(NC1CCOCC1)c1cc(C(=O)c2ccc(-n3cccn3)cc2)c2sccc2n1 [Compound 264, 7-(4-pyrazol-1-ylbenzoyl)-N-tetrahydropyran-4-yl-thieno[3,2-b]pyridine-5-carboxamide] | > 10000 | 72.7 |
| Cc1ccc(Cc2cc(C(=O)N[C@@H]3CCCNC3)nc3ccsc23)cn1 [Compound 265, 7-[(6-methyl-3-pyridyl)methyl]-N-[(3R)-3-piperidyl]thieno[3,2-b]pyridine-5-carboxamide] | > 10000 | 56.4 |
| Cn1cc(-c2ccc(Cc3cc(C(=O)N[C@H]4CCOC[C@@H]4O)nc4ccsc34)cc2)cn1 [Compound 267, N-[(3R,4S)-3-hydroxytetrahydropyran-4-yl]-7-[[4-(1-methylpyrazol-4-yl)phenyl]methyl]thieno[3,2-b]pyridine-5-carboxamide] | 3.41 | 50.9 |
| Cn1cc(-c2ccc(Cc3cc(C(=O)NC4CCOCC4)nc4ccsc34)cc2)cn1 [Compound 268, 7-[[4-(1-methylpyrazol-4-yl)phenyl]methyl]-N-tetrahydropyran-4-yl-thieno[3,2-b]pyridine-5-carboxamide] | 59.5 | 70.1 |
| Cc1csc2c(Cc3ccc(-n4cccn4)cc3)cc(C(=O)N[C@H]3CCOC[C@@H]3O)nc12 [Compound 269, N-[(3R,4S)-3-hydroxytetrahydropyran-4-yl]-3-methyl-7-[(4-pyrazol-1-ylphenyl)methyl]thieno[3,2-b]pyridine-5-carboxamide] | 23.4 | 77.6 |
| O=C(N[C@@H]1CC[C@H]1O)c1cc(Cc2c(F)cc(-c3cscn3)cc2F)c2sccc2n1 [Compound 274, 7-[(2,6-difluoro-4-thiazol-4-yl-phenyl)methyl]-N-[(1R,2R)-2-hydroxycyclobutyl]thieno[3,2-b]pyridine-5-carboxamide] | > 10000 | 46.8 |
| O=C(N[C@@H]1CCOC1)c1cc(Cc2ccc(-n3cccn3)cc2)c2sccc2n1 [Compound 277, 7-[(4-pyrazol-1-ylphenyl)methyl]-N-[(3R)-tetrahydrofuran-3-yl]thieno[3,2-b]pyridine-5-carboxamide] | 627 | 67.9 |
| O=C(N[C@H]1CCOC1)c1cc(Cc2ccc(-n3cccn3)cc2)c2sccc2n1 [Compound 278, 7-[(4-pyrazol-1-ylphenyl)methyl]-N-[(3S)-tetrahydrofuran-3-yl]thieno[3,2-b]pyridine-5-carboxamide] | 485 | 73.4 |
| O=C(NC1COC1)c1cc(Cc2ccc(-n3cccn3)cc2)c2sccc2n1 [Compound 279, N-(oxetan-3-yl)-7-[(4-pyrazol-1-ylphenyl)methyl]thieno[3,2-b]pyridine-5-carboxamide] | 1050 | 68.7 |
| O=C(NC1CC(F)C1)c1cc(Cc2ccc(-n3cccn3)cc2)c2sccc2n1 (centres unmarked) [Compound 280, N-(3-fluorocyclobutyl)-7-[(4-pyrazol-1-ylphenyl)methyl]thieno[3,2-b]pyridine-5-carboxamide] | 297 | 71.8 |
| O=C(NCC1CCO1)c1cc(Cc2ccc(-n3cccn3)cc2)c2sccc2n1 (centres unmarked) [Compound 284, N-(oxetan-2-ylmethyl)-7-[(4-pyrazol-1-ylphenyl)methyl]thieno[3,2-b]pyridine-5-carboxamide] | 67.7 | 66.9 |
